Laboratory results: patent US6936623B2, “Pyrano[2,3-C]imidazo[-1,2-A]pyridine derivatives for the treatment of gastrointestinal disorders” (Altana Pharma AG, priority 2000, dated 2005)

Test system: pentagastrin-stimulated acid secretion of the perfused rat stomach
Conditions: perfused rat stomach in vivo, dose 1 μmol/kg i.v.
Protocol: The pH (pH meter 632, glass electrode EA 147; φ=5 mm, Metrohm) and, by titration with a freshly prepared 0.01 N NaOH solution to pH 7 (Dosimat 665 Metrohm), the secreted HCl were determined in the effluent in each case collected at an interval of 15 minutes.
The gastric secretion was stimulated by continuous infusion of 1 μg/kg (=1.65 ml/h) of i.v. pentagastrin (left femoral vein) about 30 min after the end of the operation (i.e. after determination of 2 preliminary fractions).
The body temperature of the animals was kept at a constant 37.8-38° C. by infrared irradiation and heat pads (automatic, stepless control by means of a rectal temperature sensor).

Compound | Inhibition of acid secretion
COCCO[C@@H]1c2ccn3c(C)c(C)nc3c2O[C@H](c2ccccc2)[C@@H]1O [Example 1, (7R,8R,9R)-2,3-Dimethyl-8-hydroxy-7-(2-methoxyethoxy)-9-phenyl-7H-8,9-dihydro-pyrano-[2,3-c]imidazo[1,2-a]pyridine] | 100%
CCO[C@@H]1c2ccn3c(C)c(C)nc3c2O[C@H](c2ccccc2)[C@@H]1O [Example 3, (7R,8R,9R)-2,3-Dimethyl-8-hydroxy-7-ethoxy-9-phenyl-7H-8,9-dihydro-pyrano[2,3-c]imidazo-[1,2-a]pyridine] | 100%
